Tests used:
Format in all cases: in vivo
[1] = system: SETARIA VIRIDIS, (L) BEAU; assay: Preemergence herbicidal evaluation, SETVI (Foxtail, Green); conditions: rated four to five weeks after treatment
Excerpt: (§1) Results of herbicide evaluation are expressed on a rating scale (0-9). The scale is based upon a visual observation of plant stand, vigor, malformation, size, chlorosis and overall plant appearance as compared with a control.
(§2) The preemergence herbicidal activity of the test compounds of the present invention is exemplified by the following tests in which the seeds of a variety of monocotyledonous and dicotyledonous plants are separately mixed with potting soil and planted on top of approximately one inch of soil in separate pint cups. […] The treated cups are then placed on greenhouse benches, watered and cared for in accordance with conventional greenhouse procedures. From four to five weeks after treatment, the tests are terminated and each cup is examined and rated according to the rating system provided in Example 40.
(§3) The compounds evaluated are reported by compound number given in Example 40.

SAGITTARIA PYGMAEA, L. = assay: Preemergence weed control under flooded paddy conditions, SAGPY (Arrowhead (Pygmaea)); conditions: preemergence, 3-4 weeks after treatment
Outline: (§4)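 Visual 0-9 rating against untreated control, covering stand, vigor, malformation, size and chlorosis, scored three to four weeks post-treatment in a greenhouse. Application was into 1.5-3 cm flood water over silt loam sown at 0.5 cm. The 50/50 v/v aqueous/acetone doses were about 0.5, 0.25, 0.125 and 0.063 kg/ha.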

CASSIA OBTUSIFOLIA, L. [2] = assay: Preemergence herbicidal evaluation, CASOB (Sicklepod); conditions: rated four to five weeks after treatment
Outline: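 Preemergence herbicidal activity against sicklepod was assessed by planting seed mixed with potting soil atop about one inch of soil in pint cups. After treatment the cups were watered and handled per standard greenhouse practice. Tests ended four to five weeks later, with plant stand, vigor, malformation, size, chlorosis and overall appearance scored 0-9 relative to a control.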

[3] = system: AMBROSIA ARTEMISIIFOLIA, L.; assay: Preemergence herbicidal evaluation, AMBEL (Ragweed, Common); conditions: rated four to five weeks after treatment
Outline: (§5)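 Seeds sown in potting soil cups, then sprayed preemergence with aqueous acetone compound solution at about 0.125 to 0.50 kg per hectare. Greenhouse-grown, rated 4–5 weeks after treatment on a 0–9 visual scale against control.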

[4] = system: ORYZA SATIVA, L. TEBONNET; assay: Rice tolerance to post-transplant applications under flooded paddy conditions, ORYSAT (Rice, Tebonnet); conditions: post-transplant rice, 3-4 weeks after treatment
Outline: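 Rated on a visual 0–9 scale against untreated plants 3–4 weeks after application, rice (cv. Tebonnet) tolerance was tested by applying compounds (approx. 0.5–0.063 kg/ha, acetone/water 50/50) to flooded soil three days post-transplant, water kept 1.5–3 cm deep.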

CYPERUS IRIA = assay: Preemergence weed control under flooded paddy conditions, CYPIR (Rice Flatsedge); conditions: preemergence, 3-4 weeks after treatment
Outline: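 This preemergence test mimicked flooded paddy conditions: rice flatsedge propagules were sown in the upper 0.5 cm of silt loam in undrained 32 oz. containers (10.5 cm diameter), with water held 1.5 to 3 cm over the soil. After normal greenhouse care, plants were scored 0-9 for stand, vigor, malformation, size, chlorosis and appearance relative to controls.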

IPOMOEA SPP. = assay: Preemergence herbicidal evaluation, IPOSS (Morningglory spp.); conditions: rated four to five weeks after treatment
Excerpt: as §1, §2, §3

[5] = system: CYPERUS SEROTINUS, ROTTB.; assay: Preemergence weed control under flooded paddy conditions, CYPSE (Flatsedge); conditions: preemergence, 3-4 weeks after treatment
Outline: as §4

[6] = system: ECHINOCHLOA CRUS-GALLI, (L) BEAU; assay: Preemergence herbicidal evaluation, ECHCG (Barnyardgrass); conditions: rated four to five weeks after treatment
Outline: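 In this preemergence herbicide test, cups holding seeds of ECHCG sown in potting soil over roughly one inch of soil were treated and then grown under conventional greenhouse care. Tests were ended four to five weeks after treatment, and injury was scored 0-9 from stand, vigor, malformation, size, chlorosis and overall appearance relative to a control.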

[7] = system: ABUTILON THEOPHRASTI, MEDIC.; assay: Preemergence herbicidal evaluation, ABUTH (Velvetleaf); conditions: rated four to five weeks after treatment
Excerpt: as §1, §2, §3

[8] = system: AMBROSIA ARTEMISIIFOLIA, L.; assay: Postemergence herbicidal evaluation, AMBEL (Ragweed, Common)
Outline: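 Postemergence herbicidal activity on AMBEL (common ragweed) was assessed on two-week-old seedlings grown in jiffy flats. Treatment solutions of 50/50 acetone/water with 0.5% TWEEN®20 surfactant were sprayed at 40 psi. After four to five weeks in the greenhouse, plants were scored 0-9 against a control for stand, vigor, malformation, size, chlorosis and overall appearance, with multiple tests averaged.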

[9] = system: SETARIA VIRIDIS, (L) BEAU; assay: Postemergence herbicidal evaluation, SETVI (Foxtail, Green); parameters: key to SETVI rating / Herbicidal effect rating, SETVI / SETVI: 0-9 visual rating scale vs untreated control
Outline: (§6)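 Spray: acetone/water 50/50 + 0.5% TWEEN 20; rate ~0.125–0.500 kg/ha; nozzle 40 psi; ~2-wk seedlings. Read: visual 0–9 rating at 4–5 wk post-treatment vs control; replicate tests averaged.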

[10] = system: TRITICUM AESTIVUM, CV. APOLLO; assay: Preemergence herbicidal evaluation, TRZAWO (Wheat, Winter, CV. APOLLO); conditions: rated four to five weeks after treatment
Outline: as §5

[…], PRESL. = Preemergence weed control under flooded paddy conditions, MOOVA (Monochoria); conditions: 0.500 kg/ha, preemergence, 3-4 weeks after treatment
Outline: as §4

[11] = system: ECHINOCHLOA CRUS-GALLI, (L) BEAU; assay: Postemergence herbicidal evaluation, ECHCG (Barnyardgrass); parameters: key to ECHCG rating / Herbicidal effect rating, ECHCG / ECHCG: 0-9 visual rating scale vs untreated control
Outline: as §6

[12] = system: GLYCINE MAX(L) MERR. CV. WILLIAMS; assay: Preemergence herbicidal evaluation, GLXMAW (Soybean, Williams); conditions: rated four to five weeks after treatment
Outline: as §5

[13] = system: ECHINOCHLOA ORYZOIDES (ARD.)FRITSCH; assay: Preemergence weed control under flooded paddy conditions, ECHORC (Watergrass (Calif.)); conditions: 0.500 kg/ha, preemergence, 3-4 weeks after treatment
Outline: as §4

CASSIA OBTUSIFOLIA, L. [14] = assay: Postemergence herbicidal evaluation, CASOB (Sicklepod); parameters: key to CASOB rating / Herbicidal effect rating, CASOB / CASOB: 0-9 visual rating scale vs untreated control
Outline: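 Each value is a 0–9 visual rating of plant appearance compared with control, recorded 4–5 weeks after a 0.125–0.500 kg/ha spray, with multiple tests averaged.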

COC(=O)Cn1c(=O)n(C)c(=O)n(-c2cc(Oc3c(Cl)cccc3Cl)ccc2[N+](=O)[O-])c1=O [Compound 37, Methyl 3-[5-(2,6-dichlorophenoxy)-2-nitrophenyl]tetrahydro-5-methyl-2,4,6-trioxo-s-triazine-1(2H)-acetate]
SETVI herbicidal rating ([1]; Rate 0.125 kg/ha): 0.0
SETVI herbicidal rating ([1]; Rate 0.250 kg/ha): 0.0
SETVI herbicidal rating ([1]; Rate 0.500 kg/ha): 0.0
Herbicidal effect rating, SAGPY (SAGITTARIA PYGMAEA, L.; 0.063 kg/ha): 0.0
Herbicidal effect rating, SAGPY (SAGITTARIA PYGMAEA, L.; 0.125 kg/ha): 0.0
Herbicidal effect rating, SAGPY (SAGITTARIA PYGMAEA, L.; 0.250 kg/ha): 0.0
Herbicidal effect rating, SAGPY (SAGITTARIA PYGMAEA, L.; 0.500 kg/ha): 0.0
CASOB herbicidal rating (CASSIA OBTUSIFOLIA, L. [2]; Rate 0.125 kg/ha): 0.0
CASOB herbicidal rating (CASSIA OBTUSIFOLIA, L. [2]; Rate 0.250 kg/ha): 0.0
CASOB herbicidal rating (CASSIA OBTUSIFOLIA, L. [2]; Rate 0.500 kg/ha): 0.0
AMBEL herbicidal rating ([3]; Rate 0.125 kg/ha): 0.0
AMBEL herbicidal rating ([3]; Rate 0.250 kg/ha): 0.0
AMBEL herbicidal rating ([3]; Rate 0.500 kg/ha): 0.0
Herbicidal effect rating, ORYSAT ([4]; 0.063 kg/ha): 0.0
Herbicidal effect rating, ORYSAT ([4]; 0.125 kg/ha): 1.0
Herbicidal effect rating, ORYSAT ([4]; 0.250 kg/ha): 1.0
Herbicidal effect rating, ORYSAT ([4]; 0.500 kg/ha): 2.0
Herbicidal effect rating, CYPIR (CYPERUS IRIA; 0.063 kg/ha): 0.0
Herbicidal effect rating, CYPIR (CYPERUS IRIA; 0.125 kg/ha): 0.0
Herbicidal effect rating, CYPIR (CYPERUS IRIA; 0.250 kg/ha): 0.0
Herbicidal effect rating, CYPIR (CYPERUS IRIA; 0.500 kg/ha): 0.0
IPOSS herbicidal rating (IPOMOEA SPP.; Rate 0.125 kg/ha): 0.0
IPOSS herbicidal rating (IPOMOEA SPP.; Rate 0.250 kg/ha): 0.0
IPOSS herbicidal rating (IPOMOEA SPP.; Rate 0.500 kg/ha): 0.0
Herbicidal effect rating, CYPSE ([5]; 0.063 kg/ha): 0.0
Herbicidal effect rating, CYPSE ([5]; 0.125 kg/ha): 0.0
Herbicidal effect rating, CYPSE ([5]; 0.250 kg/ha): 0.0
Herbicidal effect rating, CYPSE ([5]; 0.500 kg/ha): 0.0
ECHCG herbicidal rating ([6]; Rate 0.125 kg/ha): 0.0
ECHCG herbicidal rating ([6]; Rate 0.250 kg/ha): 0.0
ECHCG herbicidal rating ([6]; Rate 0.500 kg/ha): 0.0
ABUTH herbicidal rating ([7]; Rate 0.125 kg/ha): 0.0
ABUTH herbicidal rating ([7]; Rate 0.250 kg/ha): 0.0
ABUTH herbicidal rating ([7]; Rate 0.500 kg/ha): 0.0

Cn1c(=O)n(CC(N)=O)c(=O)n(-c2cccc(Oc3ccc(C(F)(F)F)cc3Cl)c2)c1=O [Compound 46, 3-{5-[(2-Chloro-α,α,α-trifluoro-p-tolyl)-oxy]phenyl}tetrahydro-5-methyl-2,4,6-trioxo-s-triazine-1(2H)-acetamide]
SETVI herbicidal rating ([1]; Rate 0.125 kg/ha): 0.0
SETVI herbicidal rating ([1]; Rate 0.250 kg/ha): 0.0
SETVI herbicidal rating ([1]; Rate 0.500 kg/ha): 0.0
Herbicidal effect rating, SAGPY (SAGITTARIA PYGMAEA, L.; 0.500 kg/ha): 0.0
CASOB herbicidal rating (CASSIA OBTUSIFOLIA, L. [2]; Rate 0.125 kg/ha): 0.0
CASOB herbicidal rating (CASSIA OBTUSIFOLIA, L. [2]; Rate 0.250 kg/ha): 0.0
CASOB herbicidal rating (CASSIA OBTUSIFOLIA, L. [2]; Rate 0.500 kg/ha): 0.0
AMBEL rating ([8]; Rate 0.125 kg/ha): 0.0
AMBEL rating ([8]; Rate 0.250 kg/ha): 0.0
AMBEL rating ([8]; Rate 0.500 kg/ha): 0.0
SETVI rating ([9]; Rate 0.125 kg/ha): 0.0
SETVI rating ([9]; Rate 0.250 kg/ha): 0.0
SETVI rating ([9]; Rate 0.500 kg/ha): 0.0
AMBEL herbicidal rating ([3]; Rate 0.125 kg/ha): 0.0
AMBEL herbicidal rating ([3]; Rate 0.250 kg/ha): 0.0
AMBEL herbicidal rating ([3]; Rate 0.500 kg/ha): 0.0
TRZAWO herbicidal rating ([10]; Rate 0.125 kg/ha): 1.0
TRZAWO herbicidal rating ([10]; Rate 0.250 kg/ha): 1.0
TRZAWO herbicidal rating ([10]; Rate 0.500 kg/ha): 1.0
Herbicidal effect rating, MOOVA ([…], PRESL.): 0.0
Herbicidal effect rating, ORYSAT ([4]; 0.500 kg/ha): 0.0
Herbicidal effect rating, CYPIR (CYPERUS IRIA; 0.500 kg/ha): 0.0
ECHCG rating ([11]; Rate 0.125 kg/ha): 0.0
ECHCG rating ([11]; Rate 0.250 kg/ha): 0.0
ECHCG rating ([11]; Rate 0.500 kg/ha): 0.0
GLXMAW herbicidal rating ([12]; Rate 0.125 kg/ha): 1.0
GLXMAW herbicidal rating ([12]; Rate 0.250 kg/ha): 1.0
GLXMAW herbicidal rating ([12]; Rate 0.500 kg/ha): 1.0
IPOSS herbicidal rating (IPOMOEA SPP.; Rate 0.125 kg/ha): 0.0
IPOSS herbicidal rating (IPOMOEA SPP.; Rate 0.250 kg/ha): 0.0
IPOSS herbicidal rating (IPOMOEA SPP.; Rate 0.500 kg/ha): 0.0
Herbicidal effect rating, CYPSE ([5]; 0.500 kg/ha): 0.0
ECHCG herbicidal rating ([6]; Rate 0.125 kg/ha): 0.0
ECHCG herbicidal rating ([6]; Rate 0.250 kg/ha): 0.0
ECHCG herbicidal rating ([6]; Rate 0.500 kg/ha): 0.0
ABUTH herbicidal rating ([7]; Rate 0.125 kg/ha): 0.0
ABUTH herbicidal rating ([7]; Rate 0.250 kg/ha): 0.0
ABUTH herbicidal rating ([7]; Rate 0.500 kg/ha): 0.0
Herbicidal effect rating, ECHORC [13]: 0.0
CASOB rating (CASSIA OBTUSIFOLIA, L. [14]; Rate 0.125 kg/ha): 0.0
CASOB rating (CASSIA OBTUSIFOLIA, L. [14]; Rate 0.250 kg/ha): 0.0
CASOB rating (CASSIA OBTUSIFOLIA, L. [14]; Rate 0.500 kg/ha): 0.0
